Experimental data: patent US20080269306A1, “Antidepressant Medicament Comprising Idazoxan and a Selective Serotonin Reuptake Inhibitor” (ALPHA 2 PHARMACEUTICA AB, priority 2004, published 2008)

Experiments:
[1] = test system: dopamine output in the medial prefrontal cortex; experiment: Microdialysis: dopamine output in the medial prefrontal cortex of freely moving rats; format: in vivo, rat; details: for effect on dopamine output in the medial prefrontal cortex: citalopram alone, or low dose of Idazoxan added to citalopram; for DOPAMINE Medial Prefrontal Cortex, mean values: n = 5
Protocol: (§1) Adult male BK1:WR (Wistar) rats weighing 230-390 g were used in all experiments. Animals arrived at least five days prior to experimental use and were housed (4 per cage [Makrolon IV]) in the animal facility under standard laboratory conditions with a 12 h light/dark cycle with lights on at 6.00 a.m. All experiments were performed between 8.00 a.m. and 6.00 p.m. Food and water were available ad lib. All experiments were approved by, and conducted in accordance with, the local Animal Ethics Committee (Stockholms Norra och Södra Försöksdjursetiska Kommittéer) (permits no. N216/00, N11/00). The probe implantation and dialysis procedure, as well as the biochemical analyses, were similar to those previously described (Hertel et al 1996, […] et al 1999). Anesthetized male BKI:WR (Wistar) rats (B&K Universal, Sollentuna, Sweden; sodium pentobarbital, 60 mg/kg, intraperitoneal; i.p.) were implanted with dialysis probes in the medial prefrontal cortex (mPFC) [AP: +2.6; ML: -0.6; DV: -5.2], relative to bregma and dural surface (Paxinos and Watson 1998). Dialysis occurred through a semipermeable membrane (AN69 Hospal) with an active surface length of 4 mm. Dialysis experiments were conducted approximately 48 h after surgery in freely moving rats. The dialysis probe was perfused with a physiological perfusion solution (147 mM sodium chloride, 3.0 mM potassium chloride, 1.3 mM calcium chloride, 1.0 mM magnesium chloride, and 1.0 mM sodium phosphate, pH 7.4) at a rate of 2.5 μl/min set by a microinfusion pump (Harvard Apparatus, Holliston, Mass.). On-line quantification of noradrenaline (NA) or dopamine (DA) in the dialysate was accomplished by high pressure liquid chromatography coupled to electrochemical detection. The placement of the probe was later verified in slices stained with neutral red. 2-Way Anova (treatment×time) followed by Neuman-Keuls Post Hoc comparison test.

[2] = test system: noradrenaline output in the medial prefrontal cortex; experiment: Microdialysis: noradrenaline output in the medial prefrontal cortex of freely moving rats; format: in vivo, rat; details: for effect on noradrenaline output in the medial prefrontal cortex: citalopram alone, or low dose of Idazoxan added to citalopram; for NORADRENALINE Medial Prefrontal Cortex, mean values: n = 5
Protocol: as §1

[3] = awake freely moving rat, low dose of Idazoxan added to citalopram
[4] = TIME 30 min, after citalopram 5 mg/kg s.c., before saline/idazoxan
[5] = TIME 60 min, after citalopram 5 mg/kg s.c., before saline/idazoxan
[6] = TIME 90 min, after citalopram 5 mg/kg s.c., before saline/idazoxan
[7] = TIME 120 min, citalopram 5 mg/kg s.c., then saline 1 ml/kg or idazoxan 1.5 mg/kg s.c. after the 90 min sample
[8] = TIME 150 min, citalopram 5 mg/kg s.c., then saline 1 ml/kg or idazoxan 1.5 mg/kg s.c. after the 90 min sample
[9] = TIME 180 min, citalopram 5 mg/kg s.c., then saline 1 ml/kg or idazoxan 1.5 mg/kg s.c. after the 90 min sample
[10] = TIME 210 min, citalopram 5 mg/kg s.c., then saline 1 ml/kg or idazoxan 1.5 mg/kg s.c. after the 90 min sample
[11] = TIME 240 min, citalopram 5 mg/kg s.c., then saline 1 ml/kg or idazoxan 1.5 mg/kg s.c. after the 90 min sample
[12] = TIME 270 min, citalopram 5 mg/kg s.c., then saline 1 ml/kg or idazoxan 1.5 mg/kg s.c. after the 90 min sample

c1ccc2c(c1)OCC(C1=NCCN1)O2 (racemic) [Idazoxan, 2-(1,4-benzodioxan-2-yl)-2-imidazoline]
effect on dopamine output in the medial prefrontal cortex ([1]; awake freely moving rat): significant increase | duration of the increase in dopamine output [1, 3]: approximately 2 hours | effect on noradrenaline output in the medial prefrontal cortex ([2]; awake freely moving rat): significant increase | duration of the increase in noradrenaline output [2, 3]: approximately 2 hours

CN(C)CCCC1(c2ccc(F)cc2)OCc2cc(C#N)ccc21 (stereo not drawn) [Citalopram + Saline, Citalopram]
DOPAMINE Medial Prefrontal Cortex, mean values [1, 4]: 129.4 % Baseline | DOPAMINE Medial Prefrontal Cortex, mean values [1, 5]: 104.5 % Baseline | DOPAMINE Medial Prefrontal Cortex, mean values [1, 6]: 109.1 % Baseline | DOPAMINE Medial Prefrontal Cortex, mean values [1, 7]: 127.8 % Baseline | DOPAMINE Medial Prefrontal Cortex, mean values [1, 8]: 110.3 % Baseline | DOPAMINE Medial Prefrontal Cortex, mean values [1, 9]: 97.7 % Baseline | DOPAMINE Medial Prefrontal Cortex, mean values [1, 10]: 88.0 % Baseline | DOPAMINE Medial Prefrontal Cortex, mean values [1, 11]: 104.5 % Baseline | DOPAMINE Medial Prefrontal Cortex, mean values [1, 12]: 94.1 % Baseline | effect on dopamine output in the medial prefrontal cortex ([1]; awake freely moving rat): does not per se affect | NORADRENALINE Medial Prefrontal Cortex, mean values [2, 4]: 127.8 % Baseline | NORADRENALINE Medial Prefrontal Cortex, mean values [2, 5]: 118.8 % Baseline | NORADRENALINE Medial Prefrontal Cortex, mean values [2, 6]: 105.5 % Baseline | NORADRENALINE Medial Prefrontal Cortex, mean values [2, 7]: 114.6 % Baseline | NORADRENALINE Medial Prefrontal Cortex, mean values [2, 8]: 103.2 % Baseline | NORADRENALINE Medial Prefrontal Cortex, mean values [2, 9]: 81.6 % Baseline | NORADRENALINE Medial Prefrontal Cortex, mean values [2, 10]: 88.7 % Baseline | NORADRENALINE Medial Prefrontal Cortex, mean values [2, 11]: 83.7 % Baseline | NORADRENALINE Medial Prefrontal Cortex, mean values [2, 12]: 87.9 % Baseline | effect on noradrenaline output in the medial prefrontal cortex ([2]; awake freely moving rat): does not per se affect
